Where two headings read alike, the source gives them in different places.
Legend:
B16-F10 lung metastasis = assay: Inhibition of B16-F10 lung metastasis by aerosol delivery; format: in vivo, C57BL/6 mice; conditions: 5% CO2 alone, data not shown
Procedure: B16-F10 melanoma cell line was obtained from Division of Cancer treatment and Diagnosis Center (DCTDC, NCE, Frederick, Md.) and cultivated in DMEM supplemented with 10% fetal calf serum. […] Twenty-five thousand B16-F10 cells in 200 μl of media are injected per mice via the tail vein of C57BL/6 mice. Lung metastases are visually detected within 2 weeks after inoculation of cells. The cells were used at passages 3-12.
C57BL/6 mice were injected intravenously with 25,000 B16-F10 cells on day 0. The mice were treated with polyethylenimine-p53 aerosol complexes generated using 5% CO2 twice a week starting the day after inoculation of the cancer cells into the mice (on days 1, 4, 8, 11, 15, 18, and 22) with the last treatment on day 22 postinjection (a total of seven aerosol exposures). Control groups included untreated mice, mice treated with polyethyleneimine or with polyethylenimine-Luc aerosol complexes. The control animals start dying around day 24 post tumor cell inoculation, which is when the therapy was stopped and the experiment terminated. The dosage of treatment was 2 mg plasmid/10 ml of aerosolized solution at a polyethyleneimine:DNA (N:P) ratio of 10:1. This is the total amount of DNA aerosolized to the mice. […]

[1] = cited from earlier work
[2] = cited from earlier work; for increase in frequency of breathing / increase in minute volumes / increase in tidal volumes: normal humans
[3] = Tissue distribution and pharmacokinetics of PTX after PTX-DLPC aerosol generated with normal or 5% CO2-enriched air; format: in vivo, mice; conditions: for Cmax: lung, inhaled, 10 mg of PTX/ml suspension (nebulized, 30 min aerosol exposure), 30 min, read-out: Pulmonary paclitaxel Cmax
[4] = Tissue distribution and pharmacokinetics of CPT after CPT-DLPC aerosol generated with normal or 5% CO2-enriched air; conditions: 5% CO2-in-air versus normal air
Procedure: Briefly, an AERO-MIST jet nebulizer (CIS-USA, Bedford, Mass.) is used to generate aerosol particles at the air flow rate of 10 L/min. Mice are placed in sealed plastic cage (23×18×13 cm) and exposed to aerosol for 30 min. The aerosol is generated with normal or 5% CO2-enriched air obtained by mixing normal air and CO2 with a blender (Bird 3m, Palm Springs, Calif.) and the CO2 concentrations are calibrated with a Fluid Fyrite (Bacharach Inc., Pittsburgh, Pa.). At each time point 3 mice are removed from the cage and sacrificed by exposure to Isoflurane, USP (Abbott Laboratories, Chicago, Ill.) and exsanguination. Organs are resected, weighed and kept frozen at −70° C. until extraction.
Briefly, after thawing tissue, 20 μg of 9NC in 20 μl is added in organs as an internal standard to determine the extraction efficiency. The samples are cut in small pieces and 1 ml of 0.1% aqueous acetic acid solution, pH 3.2 is added to each sample. After the homogenization in a mini-beadbeater, the homogenates are centrifuged at 1,000×g for 5 min. The supernatant fractions are re-extracted with 8 ml of methylene chloride. The organic fraction is separated and dried under air at room temperature. […]
Chromatograms for camptothecin are monitored on Waters 470 scanning fluorescent detector (λex=360 nm, λem=455 nm) while 9NC is detected using Waters 440 UV absorbance detector monitoring at 254 nm. […]

[5] = inhalation of 5% carbon dioxide
[6] = 5% carbon dioxide for two minutes
[7] = 7.5% carbon dioxide for two minutes

SMILES: O=C=O [carbon dioxide]
- effect on the growth of tumors compared to untreated mice (B16-F10 lung metastasis): no effect
- increase in tidal volume ([1]; 5% CO2-enriched air, mammalians, plethysmograph studies): 170-180%
- increase in tidal volume [1, 5]: ≤ 192%
- increase in frequency of breathing [2, 6]: 6.7%
- increase in minute volumes [2, 6]: 34%
- increase in tidal volumes [2, 6]: 31%
- increase in frequency of breathing [2, 7]: 19%
- increase in minute volumes [2, 7]: 75%
- increase in tidal volumes [2, 7]: 52%
- increase in the minute volume [2, 5]: 3 fold

SMILES: CC(=O)O[C@H]1C(=O)[C@@]2(C)[C@H]([C@H](OC(=O)c3ccccc3)[C@]3(O)C[C@H](OC(=O)[C@H](O)[C@@H](NC(=O)c4ccccc4)c4ccccc4)C(C)=C1C3(C)C)[C@]1(OC(C)=O)CO[C@@H]1C[C@@H]2O [paclitaxel]
- area under the lung-concentration-time curve ([3]; 5% CO2): 33.7 µg·h/g
- T1/2α in the lungs ([3]; 5% CO2-air): 42 min
- T1/2β in the lungs ([3]; 5% CO2-air): 5.1 h
- AUC over a 3 hr period, fifth value of list (blood) ([3]; 5% CO2-air, trapezoidal rule): 0.13±0.10 μg PTS-hr/g of tissue
- AUC over a 3 hr period, fourth value of list (kidney) ([3]; 5% CO2-air, trapezoidal rule): 2.8±1.5 μg PTS-hr/g of tissue
- AUC over a 3 hr period, liver ([3]; 5% CO2-air, trapezoidal rule): 9.8±1.9 μg PTS-hr/g of tissue
- AUC over a 3 hr period, lungs ([3]; 5% CO2-air, trapezoidal rule): 34±2 μg PTS-hr/g of tissue
- AUC over a 3 hr period, sixth value of list (brain) ([3]; 5% CO2-air, trapezoidal rule): 0.23±0.2 μg PTS-hr/g of tissue
- average pulmonary deposition increase ([3]; 5% CO2-in-air versus normal air): 2-4 fold
- Cmax ratio 5% CO2-enriched air versus ambient air ([3]; lungs): 4.2 fold
- lung AUC ratio 5% CO2 versus normal air ([3]; mouse, in vivo): 5.7 fold
- Cmax ([3]; mouse, 5% CO2-enriched air): 23100 ± 4300 ng/g
- Cmax ([3]; mouse, ambient air): 5500 ± 200 ng/g
- T1/2α in the lungs ([3]; normal air): 18 min
- T1/2β in the lungs ([3]; normal air): 1.6 h
- area under the lung-concentration-time curve ([3]; normal air): 5.9 µg·h/g
- levels of paclitaxel in liver, spleen, kidney and blood ([3]; normal air for aerosolization): below detectable levels

SMILES: CC[C@@]1(O)C(=O)OCc2c1cc1n(c2=O)Cc2cc3ccccc3nc2-1 [camptothecin]
- average pulmonary deposition increase [4]: 2-4 fold
